Measurements published in ChEMBL document CHEMBL1201862, “PubChem BioAssay data set” (2004).
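Each compound was tested at five concentrations against cells in 96-well plates for 48 hours. GI50 is the concentration that inhibits growth by half.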 The source made the active and inactive calls. Rule as the data show it: active = GI50 up to about 1.1 µM and inactive = higher.

Legend:
Assay in all cases: NCI anticancer screen, dose series, 48 h
786-0 = system: 786-0
BT-549 = system: BT-549
DU-145 = system: DU-145
EKVX = system: EKVX
HCC 2998 = system: HCC 2998
HOP-62 = system: HOP-62
HT-29 = system: HT-29
M14 = system: M14
MDA-N = system: MDA-N
NCI-H226 = system: NCI-H226
NCI-H23 = system: NCI-H23
NCI-H460 = system: NCI-H460
NCI-H522 = system: NCI-H522
OVCAR-4 = system: OVCAR-4
OVCAR-5 = system: OVCAR-5
OVCAR-8 = system: OVCAR-8
SK-MEL-2 = system: SK-MEL-2
SNB-19 = system: SNB-19
T47D = system: T47D

Structure (SMILES)	GI50 (786-0)	GI50 (BT-549)	GI50 (DU-145)	GI50 (EKVX)	GI50 (HCC 2998)	GI50 (HOP-62)	GI50 (HT-29)	GI50 (M14)	GI50 (MDA-N)	GI50 (NCI-H226)	GI50 (NCI-H23)	GI50 (NCI-H460)	GI50 (NCI-H522)	GI50 (OVCAR-4)	GI50 (OVCAR-5)	GI50 (OVCAR-8)	GI50 (SK-MEL-2)	GI50 (SNB-19)	GI50 (T47D)
O=C(CC(=O)c1ccncc1)c1ccccc1	66.4 µM (inactive)	> 100 µM (inactive)	> 100 µM (inactive)	> 64.3 µM (inactive)	> 67.1 µM (inactive)	71.8 µM (inactive)	> 77.8 µM (inactive)	78 µM (inactive)	> 71.1 µM (inactive)	> 100 µM (inactive)	80.7 µM (inactive)	32.9 µM (inactive)	67.3 µM (inactive)	> 100 µM (inactive)	> 100 µM (inactive)	59.6 µM (inactive)	> 81.1 µM (inactive)	> 100 µM (inactive)	> 100 µM (inactive)
CCOC(=O)/C1=C(\C)N(Cc2ccccc2)C(=O)c2ccccc2C(=O)c2c(O)ccc(O)c21	> 100 µM (inactive)	< 0.01 µM (active)	> 100 µM (inactive)	80.7 µM (inactive)	> 100 µM (inactive)	> 100 µM (inactive)	> 100 µM (inactive)	> 100 µM (inactive)	> 100 µM (inactive)	> 100 µM (inactive)	> 100 µM (inactive)	> 100 µM (inactive)	24.1 µM (inactive)	> 100 µM (inactive)	> 100 µM (inactive)	> 100 µM (inactive)	> 100 µM (inactive)	> 100 µM (inactive)	> 100 µM (inactive)
CC(C)CCNC(=O)c1ccc(CNC(=O)/C=C/c2ccc3c(c2)-c2ccccc2C3)cc1	33.9 µM (inactive)	87.3 µM (inactive)	44.6 µM (inactive)	> 100 µM (inactive)	71.3 µM (inactive)	19.1 µM (inactive)	41.5 µM (inactive)	74.3 µM (inactive)	62.8 µM (inactive)	60 µM (inactive)	94 µM (inactive)	57.4 µM (inactive)	22.6 µM (inactive)	22.9 µM (inactive)	> 100 µM (inactive)	27.7 µM (inactive)	> 100 µM (inactive)	> 100 µM (inactive)	39 µM (inactive)
COc1cccc(Nc2nc(NNC(=O)Cc3ccccc3)nc(NNC(=O)c3ccncc3)n2)c1	> 10 µM (inactive)	> 10 µM (inactive)	> 10 µM (inactive)	> 10 µM (inactive)	> 10 µM (inactive)	> 10 µM (inactive)	> 100 µM (inactive)	79.4 µM (inactive)	> 10 µM (inactive)	> 100 µM (inactive)	> 10 µM (inactive)	> 10 µM (inactive)	> 100 µM (inactive)	> 10 µM (inactive)	> 100 µM (inactive)	> 10 µM (inactive)	> 100 µM (inactive)	> 100 µM (inactive)	> 10 µM (inactive)
NS(=O)(=O)c1ccc(NC(=S)N/C=C2\C(=O)Oc3ccccc3C2=O)cc1	40 µM (inactive)	34.7 µM (inactive)	27.4 µM (inactive)	34.1 µM (inactive)	34.8 µM (inactive)	20.8 µM (inactive)	53.5 µM (inactive)	21.3 µM (inactive)	34.4 µM (inactive)	12.6 µM (inactive)	38.5 µM (inactive)	39.1 µM (inactive)	23.2 µM (inactive)	43 µM (inactive)	54.5 µM (inactive)	16.2 µM (inactive)	15.3 µM (inactive)	19 µM (inactive)	41.9 µM (inactive)
CCSc1nn(-c2c3ccccc3nc3ccccc23)c(=S)s1	> 100 µM (inactive)	> 100 µM (inactive)	> 100 µM (inactive)	> 100 µM (inactive)	> 100 µM (inactive)	> 100 µM (inactive)	> 100 µM (inactive)	> 100 µM (inactive)	> 100 µM (inactive)	> 100 µM (inactive)	> 100 µM (inactive)	> 100 µM (inactive)	> 100 µM (inactive)	> 100 µM (inactive)	> 100 µM (inactive)	> 100 µM (inactive)	> 100 µM (inactive)	> 100 µM (inactive)	> 100 µM (inactive)
